Laboratory results from patent US20060057669A1, “Inactive transcription factor tif-ia and uses thereof” (priority 2002, published 2006).

Tested on: TIF-IA
Assay: Western blot of TIF-IA and Pol I in stimulated NIH3T3 cells
Type: cell-based
Details: 40 μM PD98059, 30 min
Description: Serum-starved NIH3T3 cells were stimulated for 30 min by 10% serum, 10 ng bFGF, 50 ng/ml EGF or 0.1 μM TPA in the absence or presence of 40 μM PD98059. A Western blot is shown with 50 μg lysate proteins and antibodies against unphosphorylated and phosphorylated ERK1/2 as well as Pol I (RPA116) and TIF-IA.
Similarly, the amount of both Pol I and TIF-IA remained the same in quiescent and serum-stimulated cells. On Western blots, TIF-IA from growing and quiescent cells appears as a closely spaced double-band (indicated by a dot and asterisk in FIG. 1B) that corresponds to differently phosphorylated forms of TIF-IA. After mitogenic stimulation, the faster migrating form was converted into the more slowly migrating TIF-IA moiety. The shift in electrophoretic mobility correlated with cellular pre-rRNA synthetic activity, i.e., was predominant 20-30 min after mitogenic stimulation and returned to normal levels after 2 hr. Activation of pre-rRNA synthesis and decrease in the electrophoretic mobility of TIF-IA was also observed after stimulation of quiescent cells with growth factors, e.g. bFGF, or EGF, or with the phorbol ester TPA (FIGS. 1C and D), a potent stimulus of the Ras-ERK pathway, through activation of protein kinase C.

**Q.** Which “effect on electrophoretic mobility shift of TIF-IA after stimulation” value does the source give for `COc1cccc(-c2cc(=O)c3ccccc3o2)c1N` [PD98059] here?
**A.** Its value is “prevented the electrophoretic mobility shift of TIF-IA”.

**Q.** And the “effect on the amount of Pol I and TIF-IA” value?
**A.** The value was “does not affect the amount of Pol I and TIF-IA”.
